Where a SMILES comes first, the peptide text is derived from it. [ ]: non-standard residue; d: D form. Gly(N(CH2)2(3-indolyl)) = O=C(O)CNCCc1c[nH]c2ccccc12; Nspe = C[C@H](NCC(=O)O)c1ccccc1; Nphe = O=C(O)CNCc1ccccc1; Nlys = NCCCCNCC(=O)O
Test system: red blood cells
Test: Hemolysis assay
Type: cell-based, Sprague-Dawley mouse
Procedure: To confirm cytotoxicity by the hemolytic activity of each peptoid synthesized in Example 1, hemolysis analysis was performed. The used blood was collected from a 13-week-old male Sprague-Dawley […] in a tube containing 158 UPS sodium heparin for preventing coagulation, and centrifuged at 4° C. for 10 minutes at 1,000 rpm. Afterward, the plasma was carefully removed, red blood cells were washed with phosphate-buffered saline (PBS: a mixed solution of 35 mM phosphate-buffered solution/150 mM NaCl, pH 7.4) three times and centrifuged at 1,000 rpm for 10 minutes. A 10% (v/v) red blood cell solution diluted in PBS was dispensed at 150 μL into a 96-well plate (microtiter plate), a peptoid solution was added at 50 μL, and 1% Triton X-100 was added. Afterward, the red blood cells were incubated at 37° C. for 1 hour, and the incubated 96-well plate was centrifuged at 1,000 rpm for 15 minutes. A supernatant was obtained and transferred to a new 96-well plate at 150 μL, and absorbance was measured using a spectrophotometer at 540 nm. Percent hemolysis may be calculated by the following Equation 1, and the corresponding results are shown in Tables 11 to 13. % Hemolysis=(A−C)/(B−C)×100 [Equation 1] In Equation 1, A is the absorbance of the peptoid solution at 540 nm, B is the absorbance of the 0.1% Triton X-100 at 540 nm, and C is the absorbance of the PBS solution at 540 nm.

SMILES | HC10 [µM] | HC50 [µM] | Hmax (100 μM) [%]
C[C@@H](c1ccccc1)N(CC(N)=O)C(=O)CN(C(=O)CN(CCCCN)C(=O)CN(C(=O)CN(C(=O)CN(CCCCN)C(=O)CN(C(=O)CN(C(=O)CN(CCCCN)C(=O)CN(C(=O)CN(C(=O)CN(CCCCN)C(=O)CNCCc1c[nH]c2ccccc12)[C@@H](C)c1ccccc1)[C@@H](C)c1ccccc1)[C@@H](C)c1ccccc1)[C@@H](C)c1ccccc1)[C@@H](C)c1ccccc1)[C@@H](C)c1ccccc1)[C@@H](C)c1ccccc1 [Peptoid 3] | 6.3 | 13.9 | 100.5 ± 9.9
C[C@@H](c1ccccc1)N(CC(=O)N(CCCCN)CC(=O)N(CC(=O)N(CC(=O)N(CCCCN)CC(=O)N(CC(=O)N(CC(=O)N(CCCCN)CC(=O)N(CC(=O)N(CC(=O)N(CCc1c[nH]c2ccccc12)CC(N)=O)[C@@H](C)c1ccccc1)[C@@H](C)c1ccccc1)[C@@H](C)c1ccccc1)[C@@H](C)c1ccccc1)[C@@H](C)c1ccccc1)[C@@H](C)c1ccccc1)C(=O)CN(C(=O)CNCCCCN)[C@@H](C)c1ccccc1 [Peptoid 4] (H-[Nlys][Nspe][Nspe][Nlys][Nspe][Nspe][Nlys][Nspe][Nspe][Nlys][Nspe][Nspe][Gly(N(CH2)2(3-indolyl))]-NH2) | < 6.3 | 6.7 | 103.2 ± 0.9
C[C@@H](c1ccccc1)N(CC(=O)N(CCCCN)CC(=O)N(CC(=O)N(CC(=O)N(CCCCN)CC(=O)N(CC(=O)N(CC(=O)N(CCCCN)CC(=O)N(CC(=O)N(CC(=O)N(CCc1c[nH]c2ccccc12)CC(N)=O)[C@@H](C)c1ccccc1)[C@@H](C)c1ccccc1)[C@@H](C)c1ccccc1)[C@@H](C)c1ccccc1)[C@@H](C)c1ccccc1)[C@@H](C)c1ccccc1)C(=O)CN(C(=O)CN(CCCCN)C(=O)CNCCc1c[nH]c2ccccc12)[C@@H](C)c1ccccc1 [Peptoid 5] (H-[Gly(N(CH2)2(3-indolyl))][Nlys][Nspe][Nspe][Nlys][Nspe][Nspe][Nlys][Nspe][Nspe][Nlys][Nspe][Nspe][Gly(N(CH2)2(3-indolyl))]-NH2) | < 6.3 | 15.3 | 108.1 ± 2.7
C[C@@H](c1ccccc1)N(CC(N)=O)C(=O)CN(C(=O)CN(CCCCN)C(=O)CN(C(=O)CN(C(=O)CN(CCCCN)C(=O)CN(C(=O)CN(C(=O)CN(CCCCN)C(=O)CN(C(=O)CN(C(=O)CN(CCCCN)C(=O)CN(CCc1c[nH]c2ccccc12)C(=O)CNCCc1c[nH]c2ccccc12)[C@@H](C)c1ccccc1)[C@@H](C)c1ccccc1)[C@@H](C)c1ccccc1)[C@@H](C)c1ccccc1)[C@@H](C)c1ccccc1)[C@@H](C)c1ccccc1)[C@@H](C)c1ccccc1 [Peptoid 6] | 9.6 | 22.0 | 101.6 ± 5.8
C[C@@H](c1ccccc1)N(CC(N)=O)C(=O)CN(C(=O)CN(CCCCN)C(=O)CN(CCc1c[nH]c2ccccc12)C(=O)CN(C(=O)CN(CCCCN)C(=O)CN(C(=O)CN(C(=O)CN(CCCCN)C(=O)CN(C(=O)CN(C(=O)CNCCCCN)[C@@H](C)c1ccccc1)[C@@H](C)c1ccccc1)[C@@H](C)c1ccccc1)[C@@H](C)c1ccccc1)[C@@H](C)c1ccccc1)[C@@H](C)c1ccccc1 [Peptoid 8] | 12.8 | 28.4 | 105.1 ± 2.2
C[C@@H](c1ccccc1)N(CC(N)=O)C(=O)CN(C(=O)CN(CCCCN)C(=O)CN(C(=O)CN(CCCCN)C(=O)CN(CCCCN)C(=O)CN(C(=O)CN(C(=O)CN(CCCCN)C(=O)CN(C(=O)CN(C(=O)CN(CCCCN)C(=O)CN(CCc1c[nH]c2ccccc12)C(=O)CNCCc1c[nH]c2ccccc12)[C@@H](C)c1ccccc1)[C@@H](C)c1ccccc1)[C@@H](C)c1ccccc1)[C@@H](C)c1ccccc1)[C@@H](C)c1ccccc1)[C@@H](C)c1ccccc1 [Peptoid 35] | 20.4 | 63.0 | 82.6 ± 3.2
C[C@@H](c1ccccc1)N(CC(N)=O)C(=O)CN(C(=O)CN(CCCCN)C(=O)CN(C(=O)CN(C(=O)CN(CCCCN)C(=O)CN(C(=O)CN(C(=O)CN(CCCCN)C(=O)CN(C(=O)CN(CCCCN)C(=O)CN(CCCCN)C(=O)CN(CCc1c[nH]c2ccccc12)C(=O)CNCCc1c[nH]c2ccccc12)[C@@H](C)c1ccccc1)[C@@H](C)c1ccccc1)[C@@H](C)c1ccccc1)[C@@H](C)c1ccccc1)[C@@H](C)c1ccccc1)[C@@H](C)c1ccccc1 [Peptoid 36] | 15.3 | 39.4 | 89.1 ± 3.4
C[C@@H](c1ccccc1)N(CC(=O)N(CCCCN)CC(=O)N(CC(=O)N(CC(=O)N(CCCCN)CC(=O)N(CC(=O)N(CC(=O)N(CCCCN)CC(=O)N(CC(=O)N(CC(=O)N(CC(N)=O)Cc1ccccc1)[C@@H](C)c1ccccc1)[C@@H](C)c1ccccc1)[C@@H](C)c1ccccc1)[C@@H](C)c1ccccc1)[C@@H](C)c1ccccc1)[C@@H](C)c1ccccc1)C(=O)CN(C(=O)CN(CCCCN)C(=O)CNCc1ccccc1)[C@@H](C)c1ccccc1 [Peptoid 42] (H-[Nphe][Nlys][Nspe][Nspe][Nlys][Nspe][Nspe][Nlys][Nspe][Nspe][Nlys][Nspe][Nspe][Nphe]-NH2) | < 3.1 | 6.6 | 105.9 ± 1.1
C[C@@H](c1ccccc1)N(CC(N)=O)C(=O)CN(C(=O)CN(CCCCN)C(=O)CN(C(=O)CN(C(=O)CN(CCCCN)C(=O)CN(C(=O)CN(C(=O)CN(CCCCN)C(=O)CN(C(=O)CN(C(=O)CN(CCCCN)C(=O)CN(Cc1ccccc1)C(=O)CNCc1ccccc1)[C@@H](C)c1ccccc1)[C@@H](C)c1ccccc1)[C@@H](C)c1ccccc1)[C@@H](C)c1ccccc1)[C@@H](C)c1ccccc1)[C@@H](C)c1ccccc1)[C@@H](C)c1ccccc1 [Peptoid 43] | < 3.1 | 6.4 | 105.6 ± 3.8
C[C@@H](c1ccccc1)N(CC(N)=O)C(=O)CN(CCCCN)C(=O)CN(C(=O)CN(C(=O)CN(CCCCN)C(=O)CN(C(=O)CN(C(=O)CN(CCCCN)C(=O)CN(C(=O)CN(CCCCN)C(=O)CN(CCCCN)C(=O)CN(C(=O)CNCCc1c[nH]c2ccccc12)[C@@H](C)c1ccccc1)[C@@H](C)c1ccccc1)[C@@H](C)c1ccccc1)[C@@H](C)c1ccccc1)[C@@H](C)c1ccccc1)[C@@H](C)c1ccccc1 [Peptoid 61] | 19.3 | 65.4 | 79.9 ± 0.7
C[C@@H](c1ccccc1)N(CC(N)=O)C(=O)CN(CCCCN)C(=O)CN(C(=O)CN(C(=O)CN(CCCCN)C(=O)CN(C(=O)CN(CCCCN)C(=O)CN(CCCCN)C(=O)CN(C(=O)CN(C(=O)CN(CCCCN)C(=O)CN(C(=O)CNCCc1c[nH]c2ccccc12)[C@@H](C)c1ccccc1)[C@@H](C)c1ccccc1)[C@@H](C)c1ccccc1)[C@@H](C)c1ccccc1)[C@@H](C)c1ccccc1)[C@@H](C)c1ccccc1 [Peptoid 62] | 36.2 | > 100 | 44.8 ± 8.1
C[C@@H](c1ccccc1)N(CC(N)=O)C(=O)CN(CCCCN)C(=O)CN(C(=O)CN(CCCCN)C(=O)CN(CCCCN)C(=O)CN(C(=O)CN(C(=O)CN(CCCCN)C(=O)CN(C(=O)CN(C(=O)CN(CCCCN)C(=O)CN(C(=O)CNCCc1c[nH]c2ccccc12)[C@@H](C)c1ccccc1)[C@@H](C)c1ccccc1)[C@@H](C)c1ccccc1)[C@@H](C)c1ccccc1)[C@@H](C)c1ccccc1)[C@@H](C)c1ccccc1 [Peptoid 63] | 85.0 | > 100 | 12.7 ± 0.9
C[C@@H](c1ccccc1)N(CC(=O)N(CCCCN)CC(=O)N(CC(=O)N(CC(=O)N(CCCCN)CC(=O)N(CC(=O)N(CC(=O)N(CCCCN)CC(=O)N(CC(=O)N(CC(=O)N(CCCCN)CC(=O)N(CCCCN)CC(N)=O)[C@@H](C)c1ccccc1)[C@@H](C)c1ccccc1)[C@@H](C)c1ccccc1)[C@@H](C)c1ccccc1)[C@@H](C)c1ccccc1)[C@@H](C)c1ccccc1)C(=O)CNCCc1c[nH]c2ccccc12 [Peptoid 64] (H-[Gly(N(CH2)2(3-indolyl))][Nspe][Nlys][Nspe][Nspe][Nlys][Nspe][Nspe][Nlys][Nspe][Nspe][Nlys][Nlys]-NH2) | 70.7 | > 100 | 18.9 ± 2.9

Source: patent US20240226228A1, “ANTIMICROBIAL PEPTOID HAVING IMPROVED SELECTIVITY AND ANTIMICROBIAL COMPOSITION COMPRISING SAME” (priority 2021, published 2024)
